Measured values from PMC9697446 (International Journal of Molecular Sciences, 2022).

Key:
[1] = test system: rat brain cortical neurons (BCN); test: Ionomycin-induced toxicity in brain cortical neurons, MTT assay; assay type: cell-based; details: ionomycin 1 µM
Method: (§1) This neurotoxicity model reflects the calcium stress involved with several types of insults, such as amyloid toxicity, excitotoxicity, and ischemic damage. The viability of the primary culture of rat cerebellar granule cells (CGC) and brain cortical neurons (BCN) was assessed by the MTT assay in the presence of various concentrations of compound 4i.
Cerebellar granule cells (CGC) and brain cortical neurons (BCN) were isolated from P-7 or P0-2 rat’s pups, respectively, using a previously described protocol. Once removed, cerebella or brain cortex were digested for 15 min in 0.025% type II trypsin (w/v) at 37 °C. Ice-cold DMEM containing 5% (w/v) fetal bovine serum was added to inactivate the trypsin. The crude cell suspension was centrifuged, and the cell pellet was resuspended in Neurobasal with 2% (v/v) B27 supplemented with 15% (v/v) fetal bovine serum (FBS), 100 U/mL penicillin, and […] streptomycin. The cells were cultured in a humidified, 5% (v/v) CO2-controlled environment at 37 °C. […] The cell viability was then evaluated as the dehydrogenase activity with the 3-(4,5-dimethylthiazol-2-yl)-2,5-diphenyltetrazolium bromide (MTT) assay. The absorbance was measured at 570 nm using a Victor microplate reader (Perkin Elmer), and data were normalized with intact control assumed 100%.

[2] = test system: primary culture of rat cerebellar granule cells (CGC); test: Ionomycin-induced toxicity in cerebellar granule cells, MTT assay; assay type: cell-based; details: ionomycin 3 µM
Method: as §1
(§2) Cerebellar granule cells (CGC) and brain cortical neurons (BCN) were isolated from P-7 or P0-2 rat’s pups, respectively, using a previously described protocol. Once removed, cerebella or brain cortex were digested for 15 min in 0.025% type II trypsin (w/v) at 37 °C. Ice-cold DMEM containing 5% (w/v) fetal bovine serum was added to inactivate the trypsin. […] After 8-10 day in culture the cells were incubated with a test compound or an equal volume of the DMSO (<1% (v/v) of the whole volume of the medium under the layer of cells and 3 µM ionomycin for 24 h. The cell viability was then evaluated as the dehydrogenase activity with the 3-(4,5-dimethylthiazol-2-yl)-2,5-diphenyltetrazolium bromide (MTT) assay. The absorbance was measured at 570 nm using a Victor microplate reader (Perkin Elmer), and data were normalized with intact control assumed 100%.

[3] = test system: rat cerebellar granule cells (CGC) and brain cortical neurons (BCN); test: Viability of CGC and BCN with the compound alone, MTT assay; assay type: cell-based; details: various concentrations
Method: as §1, §2

[4] = cited from earlier work

| Structure (SMILES) | Protection from ionomycin-induced toxicity, BCN [1] | Protection from ionomycin-induced toxicity, CGC [2] | Effect on formazan formation in the MTT assay (toxicity to cells) [3] | Redox potential [4] [mV] |
| --- | --- | --- | --- | --- |
| CC1CCc2c(c3cc(OC(F)(F)F)ccc3n2CCC(=O)N2c3ccc(N(C)C)cc3Sc3cc(N(C)C)ccc32)C1 (stereo not shown) [Compound 4i] | statistically significant protection | statistically significant protection | did not affect formazan formation |  |
| CN(C)c1ccc2nc3ccc(=[N+](C)C)cc-3sc2c1 [MB, Methylene blue, reference compound] |  |  |  | 11 |
